In patent US10196383B2, “Substituted quinazoline compounds and preparation and uses thereof” (Sunshine Lake Pharma Co., Ltd., priority 2015, dated 2019):
pIC50: −log10 of the molar value.

Experiments:
[1] = molecular target: humanized OX1 receptor (Homo sapiens (Human), UniProt O43613); test: Antagonism of humanized OX1 receptor assay (fluorescence detection of free cytoplasmic calcium, 3 nM orexin A); format: cell-based; details: humanized OX1 receptor transfected CHO cells
Method: The capability of the compounds to the antagonism of humanized OX1 receptor transfected to the Chinese hamster ovary (CHO) cells was evaluated by the method of fluorescence detected free calcium concentration in the cytoplasm. The cells were suspended in a cell culture medium (invitrogen), and then plated to a microplate with an average density of 2×10^4 cells/well. The fluorescent probes (Fluo4 NW, Invitrogen) was mixed with probenecid Hank's balanced salt solution (invitrogen), followed by addition of 20 mM hydroxyethyl piperazine […] (invitrogen) (pH 7.4). The resulting mixture was eventually added to the microwells containing cells. The cells were incubated at 37° C. for 60 min, and then balanced at 22° C. for 15 min. The microplate was placed in a microplate reader (CellLux, PerkinElmer), and the solution of test compound with different concentrations or Hank's balanced salt solution was added. The microplate containing the solution was incubated for 5 min, followed by the addition of 3 nM of orexin A or a balanced salt solution (as control). The changes of fluorescence intensity proportional to the concentration of calcium ions in the cytoplasm were measured.
With the substrate control as 0 and 3 nM orexin A as 100%, inhibition rate of each compound was recorded. Referring to the compound SB334867, several different concentrations were measured in each experiment. Dose-response curves were made, and IC50 value of each compound was calculated.

[2] = molecular target: humanized OX2 receptor (Homo sapiens (Human), UniProt O43614); test: Antagonism of humanized OX2 receptor assay (fluorescence detection of free cytoplasmic calcium, 10 nM orexin B); format: cell-based; details: humanized OX2 receptor transfected HEK-293 cells
Method: The capability of the compounds to antagonism of humanized OX2 receptor transfected by the HEK-293 cells was evaluated by the method of fluorescence detected free calcium concentration in the cytoplasm. The cells were suspended in cell culture medium (invitrogen), and then added to a microplate with an average density of 3×10^4 cells/well. The fluorescent probes (Fluo4 NW, Invitrogen) was mixed with probenecid Hank's balanced salt solution (invitrogen), followed by addition of 20 mM hydroxyethyl piperazine […] (invitrogen) (pH 7.4). The resulting mixture was eventually added to the microwells containing cells. The cells were incubated at 37° C. for 60 min, and then balanced at 22° C. for 15 min. The microplate was placed in a microplate reader (CellLux, PerkinElmer), and the solution of test compound with different concentrations or Hank's balanced salt solution was added. The microplate containing the solution was incubated for 5 min, followed by the addition of 10 nM of orexin B or a balanced salt solution (as control). The changes of fluorescence intensity proportional to the concentration of calcium ions in the cytoplasm were measured.
With the substrate control as 0 and 10 nM of orexin B as 100%, inhibition rate of each compound was recorded. Referring to the compound JNJ10397049, several different concentrations were measured in each experiment. Dose-response curves were made, and IC50 value of each compound was calculated.

[3] = Pharmacokinetic evaluation with intravenous or oral administration; format: in vivo; details: rats; for AUC(0-inf) / AUC(0-t) / Cmax / Tmax / clearance / Vd: rat, plasma; for Vd: read-out: Vss
Method: Pharmacokinetics of the compound of the present invention in rats, dogs or monkeys was evaluated in the present invention. The compounds of this invention were administered with a saline solution of 5% DMSO+5% Kolliphor HS 15+2% (2% HCl)+88% Saline or 10% DMSO+10% Kolliphor HS 15+80% physiological. For intravenous administration, the animals were given a dose of 1 mg/kg, drew blood (0.3 mL) at the time point of 0.083, 0.25, 0.5, 1.0, 2.0, 4.0, 6.0, 8.0 and 24 h, and centrifuged in 3,000 or 4,000 rpm for 10 min. For oral (p.o.) administration, the animals were given a dose of 2.5 mg/kg or 5 mg/kg, drew blood (0.3 mL) at the time point of 0.25, 0.5, 1.0, 2.0, 4.0, 6.0, 8.0 and 24 h, and centrifuged in 3,000 or 4,000 rpm for 10 min. Plasma solution was collected and was stored at −20° C. or […] until LC/MS/MS analysis.

[4] = intravenous administration, 1 mg/kg

humanized OX2 receptor, sequence (O43614 whole entry): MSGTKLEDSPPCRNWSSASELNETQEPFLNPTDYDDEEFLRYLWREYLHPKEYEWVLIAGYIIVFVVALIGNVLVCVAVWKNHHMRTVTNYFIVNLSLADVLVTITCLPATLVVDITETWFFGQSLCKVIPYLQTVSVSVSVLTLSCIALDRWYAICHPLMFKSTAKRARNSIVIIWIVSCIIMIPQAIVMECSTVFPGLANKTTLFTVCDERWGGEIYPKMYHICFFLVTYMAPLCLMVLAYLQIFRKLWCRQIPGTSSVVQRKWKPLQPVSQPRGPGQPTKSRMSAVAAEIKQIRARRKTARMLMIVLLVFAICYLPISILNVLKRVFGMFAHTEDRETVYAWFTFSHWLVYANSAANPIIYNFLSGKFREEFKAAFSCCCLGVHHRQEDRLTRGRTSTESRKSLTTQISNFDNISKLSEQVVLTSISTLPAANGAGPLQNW
humanized OX1 receptor, sequence (O43613 whole entry): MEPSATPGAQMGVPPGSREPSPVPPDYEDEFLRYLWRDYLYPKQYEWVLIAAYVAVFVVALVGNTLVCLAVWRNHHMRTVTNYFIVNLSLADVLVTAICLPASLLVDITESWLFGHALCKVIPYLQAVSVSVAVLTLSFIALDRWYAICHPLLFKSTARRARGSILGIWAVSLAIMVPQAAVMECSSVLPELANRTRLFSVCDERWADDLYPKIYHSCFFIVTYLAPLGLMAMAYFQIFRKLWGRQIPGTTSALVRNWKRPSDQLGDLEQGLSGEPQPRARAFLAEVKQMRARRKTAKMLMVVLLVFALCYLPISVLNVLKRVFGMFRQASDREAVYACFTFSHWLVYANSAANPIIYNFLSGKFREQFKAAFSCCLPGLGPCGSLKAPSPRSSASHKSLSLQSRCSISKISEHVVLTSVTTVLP

Row | SMILES | pIC50 [1] | pIC50 [2] | AUC(0-inf) [3, 4] [ng·h/mL] | AUC(0-t) [3, 4] [ng·h/mL] | Cmax [3, 4] [ng/mL] | Tmax [3, 4] [min] | clearance [3, 4] [mL/min/kg] | Vd [3, 4] [L/kg] | AUC(0-inf) ([3]; oral administration, 5 mg/kg) [ng·h/mL] | AUC(0-t) ([3]; oral administration, 5 mg/kg) [ng·h/mL] | Cmax ([3]; oral administration, 5 mg/kg) [ng/mL] | Tmax ([3]; oral administration, 5 mg/kg) [min] | F ([3]; oral administration, 5 mg/kg) [%] | AUC(0-inf) ([3]; oral administration, 2.5 mg/kg) [ng·h/mL] | AUC(0-t) ([3]; oral administration, 2.5 mg/kg) [ng·h/mL] | Cmax ([3]; oral administration, 2.5 mg/kg) [ng/mL] | Tmax ([3]; oral administration, 2.5 mg/kg) [min] | F ([3]; oral administration, 2.5 mg/kg) [%]
1 | Cc1ccc(-n2nccn2)c(C(=O)N2CCN(c3nc4ccc(Cl)cc4c(=O)[nH]3)CCC2C)c1 (centres unmarked) [Example 6, 6-chloro-2-(5-methyl-4-(5-methyl-2-(2H-1,2,3-triazol-2-yl)benzoyl)-1,4-diazepan-1-yl)quinazolin-4(3H)-one] | 6.44 | 6.66 | 1740 | 1730 | 3660 | 4.98 | 9.66 | 0.292 | 6840 | 6800 | 5680 | 20 | 79 |  |  |  |  | 
2 | Cc1ccc(-n2nccn2)c(C(=O)N2CCCN(c3nc4ccc(F)cc4c(=O)[nH]3)CC2)c1 [Example 1, 6-fluoro-2-(4-(5-methyl-2-(2H-1,2,3-triazol-2-yl)benzoyl)-1,4-diazepan-1-yl)quinazolin-4(3H)-one] | 6.49 | 6.52 |  |  |  |  |  |  |  |  |  |  |  |  |  |  |  | 
3 | Cc1ccc(-n2nccn2)c(C(=O)N2CCCN(c3nc4ccc(Cl)cc4c(=O)[nH]3)CC2)c1 [Example 5, 6-chloro-2-(4-(5-methyl-2-(2H-1,2,3-triazol-2-yl)benzoyl)-1,4-diazepan-1-yl)quinazolin-4(3H)-one] | 6.56 | 6.58 |  |  |  |  |  |  |  |  |  |  |  |  |  |  |  | 
4 | O=C(c1ccccc1-n1nccn1)N1CCCN(c2nc3ccc(Cl)cc3c(=O)[nH]2)CC1 [Example 7, 2-(4-(2-(2H-1,2,3-triazol-2-yl)benzoyl)-1,4-diazepan-1-yl)-6-chloroquinazolin-4(3H)-one] |  |  | 3700 | 3450 | 4080 | 4.98 | 4.52 | 1.33 | 15000 | 14300 | 13800 | 15 | 83.1 |  |  |  |  | 
5 | Cc1ccc(-n2nccn2)c(C(=O)N2CCN(c3nc4ccc(F)cc4c(=O)[nH]3)CCC2C)c1 (centres unmarked) [Example 2, 6-fluoro-2-(5-methyl-4-(5-methyl-2-(2H-1,2,3-triazol-2-yl)benzoyl)-1,4-diazepan-1-yl)quinazolin-4(3H)-one] | 6.27 | 6.77 | 866 | 865 | 1400 | 4.98 | 19.2 | 0.66 |  |  |  |  |  | 1780 | 1770 | 1940 | 20 | 81.8
